Target: hERG (KCNH2) potassium channel (Homo sapiens, UniProt Q12809)
Experiment: For electrophysiological measurements cells were seeded onto 35 mm sterile culture dishes containing 2 ml culture medium without Hygromycin B. Cells were cultivated at a density that enabled single cells (without visible connections to neighbouring cells) to be measured. […] The cells were continuously maintained in and passaged in sterile culture flasks containing nutrient mixture F-12 (DMEM/F-12 with L-Glutamine) supplemented with 10% foetal bovine serum and 10% penicillin/streptomycin solution. […] The 35 mm culture dishes upon which cells were seeded at a density allowing single cells to be recorded were placed on the dish holder of the microscope and continuously perfused (at approximately 1 ml/min) with the bath solution (sodium chloride 150 mM, potassium chloride 4 mM, calcium chloride 1.2 mM, magnesium chloride 1 mM, HEPES 10 mM, pH (NaOH) 7.4) at near physiological temperature (36±1° C.). After formation of a Gigaohm seal between the patch electrodes and individual hERG stably transfected CHO cells (pipette resistance range: 2.0 MΩ-7.0 MΩ; seal resistance range: >1 GΩ) the cell membrane across the pipette tip was ruptured to assure electrical access to the cell interior (whole-cell patch-configuration). In case the quality of the seal was poor, the process of seal formation was repeated with a different cell and a new pipette. […] […]
Format: cell-based
Conditions: CHO cells stably expressing the hERG channel, pH 7.4

hERG (KCNH2) potassium channel, sequence (Q12809 whole entry, the tested form may be a part): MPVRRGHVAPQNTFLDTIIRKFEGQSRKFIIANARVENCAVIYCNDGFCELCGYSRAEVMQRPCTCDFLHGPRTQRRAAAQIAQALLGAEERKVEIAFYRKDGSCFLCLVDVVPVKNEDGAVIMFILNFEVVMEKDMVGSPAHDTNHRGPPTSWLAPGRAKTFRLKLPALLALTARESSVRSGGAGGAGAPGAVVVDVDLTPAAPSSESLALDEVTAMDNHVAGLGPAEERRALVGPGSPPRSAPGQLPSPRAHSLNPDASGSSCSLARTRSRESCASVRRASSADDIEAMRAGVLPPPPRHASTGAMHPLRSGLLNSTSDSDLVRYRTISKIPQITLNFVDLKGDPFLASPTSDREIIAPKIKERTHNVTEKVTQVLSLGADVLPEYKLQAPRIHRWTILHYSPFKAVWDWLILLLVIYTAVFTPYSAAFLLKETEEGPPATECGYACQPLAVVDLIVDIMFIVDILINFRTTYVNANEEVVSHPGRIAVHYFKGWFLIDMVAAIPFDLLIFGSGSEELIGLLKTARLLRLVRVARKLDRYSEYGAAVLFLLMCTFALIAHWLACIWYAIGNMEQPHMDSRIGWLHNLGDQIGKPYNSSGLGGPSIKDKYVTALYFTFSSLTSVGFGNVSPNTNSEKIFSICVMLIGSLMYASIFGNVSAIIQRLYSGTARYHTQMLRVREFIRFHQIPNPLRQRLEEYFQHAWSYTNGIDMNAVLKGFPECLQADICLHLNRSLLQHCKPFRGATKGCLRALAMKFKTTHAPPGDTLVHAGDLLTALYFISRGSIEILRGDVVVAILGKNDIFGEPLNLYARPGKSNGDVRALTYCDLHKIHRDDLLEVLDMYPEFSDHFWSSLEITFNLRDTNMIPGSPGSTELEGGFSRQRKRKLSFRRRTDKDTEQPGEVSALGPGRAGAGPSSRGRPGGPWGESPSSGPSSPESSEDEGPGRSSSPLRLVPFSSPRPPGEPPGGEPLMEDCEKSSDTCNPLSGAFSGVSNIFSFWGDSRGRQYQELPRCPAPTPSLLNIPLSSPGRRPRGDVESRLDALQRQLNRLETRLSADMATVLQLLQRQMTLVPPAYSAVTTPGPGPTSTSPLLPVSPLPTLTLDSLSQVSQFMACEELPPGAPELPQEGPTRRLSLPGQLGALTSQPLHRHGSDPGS

In the case of `O=C(Nc1ccc([C@H]2CNCCO2)cc1)c1ccc(Cl)nc1`, the IC50 is reported as 14.3 µM.
